ChEMBL document CHEMBL1133958, “Derivatives of (2R,3R,4S)-2-aminomethylpyrrolidine-3,4-diol are selective alpha-mannosidase inhibitors” (Bioorg Med Chem Lett, 2001)
Calls of active or inactive are those of the source. The rule behind the calls is not given here.

Legend:
[1] = target: Beta-galactosidase (Escherichia coli K-12) (UniProt P00722); assay: Percentage inhibition of Beta-galactosidase from Escherichia coli at 1 mM concentration
[2] = Percentage inhibition of Beta-galactosidase from Jack bean at 1 mM concentration; settings: Canavalia ensiformis
Beta-glucosidase A [3] = target: T1, Beta-glucosidase A (Caldicellulosiruptor saccharolyticus, UniProt P10482); assay: Inhibitory activity towards Beta-Glucosidase from Caldocellum saccharol.
[4] = target: T2, Glucoamylase 1 (Rhizopus oryzae) (UniProt P07683); assay: Percentage inhibition of Alpha-glucosidase from Rhizopus mold (amyloglucosidase) at 1 mM concentration; No inhibition; settings: Rhizopus arrhizus
T2 sequence (whole entry): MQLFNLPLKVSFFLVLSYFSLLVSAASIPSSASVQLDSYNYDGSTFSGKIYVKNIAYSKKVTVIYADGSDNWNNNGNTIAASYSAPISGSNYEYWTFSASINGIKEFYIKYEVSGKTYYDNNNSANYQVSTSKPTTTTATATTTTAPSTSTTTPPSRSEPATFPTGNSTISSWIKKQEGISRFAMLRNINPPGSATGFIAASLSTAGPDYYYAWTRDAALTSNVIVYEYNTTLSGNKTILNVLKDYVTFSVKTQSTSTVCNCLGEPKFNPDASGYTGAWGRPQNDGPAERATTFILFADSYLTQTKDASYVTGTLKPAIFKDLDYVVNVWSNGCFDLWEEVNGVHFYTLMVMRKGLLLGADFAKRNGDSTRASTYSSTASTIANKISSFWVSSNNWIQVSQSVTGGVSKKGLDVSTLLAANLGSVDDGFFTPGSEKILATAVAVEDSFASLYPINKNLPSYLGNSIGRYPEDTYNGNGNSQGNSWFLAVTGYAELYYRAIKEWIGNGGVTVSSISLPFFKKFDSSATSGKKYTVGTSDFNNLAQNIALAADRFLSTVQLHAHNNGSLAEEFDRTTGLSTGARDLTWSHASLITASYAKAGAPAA

Beta-glucosidase A [5] = target: T1, Beta-glucosidase A; assay: Inhibitory activity towards Beta-Glucosidase from Caldocellum saccharol
Saccharomyces cerevisiae = assay: Percentage inhibition of Alpha-glucosidase from Baker yeast (isomaltase) at 1 mM
[6] = Inhibitory activity towards Alpha-glucosidase from Baker yeast (isomaltase); design: species or system Saccharomyces cerevisiae
Beta-galactosidase = target: T3, Beta-galactosidase (Bos taurus, UniProt Q58D55); assay: Inhibitory activity towards Beta-galactosidase from Bovine liver
T3 sequence (Q58D55 whole entry): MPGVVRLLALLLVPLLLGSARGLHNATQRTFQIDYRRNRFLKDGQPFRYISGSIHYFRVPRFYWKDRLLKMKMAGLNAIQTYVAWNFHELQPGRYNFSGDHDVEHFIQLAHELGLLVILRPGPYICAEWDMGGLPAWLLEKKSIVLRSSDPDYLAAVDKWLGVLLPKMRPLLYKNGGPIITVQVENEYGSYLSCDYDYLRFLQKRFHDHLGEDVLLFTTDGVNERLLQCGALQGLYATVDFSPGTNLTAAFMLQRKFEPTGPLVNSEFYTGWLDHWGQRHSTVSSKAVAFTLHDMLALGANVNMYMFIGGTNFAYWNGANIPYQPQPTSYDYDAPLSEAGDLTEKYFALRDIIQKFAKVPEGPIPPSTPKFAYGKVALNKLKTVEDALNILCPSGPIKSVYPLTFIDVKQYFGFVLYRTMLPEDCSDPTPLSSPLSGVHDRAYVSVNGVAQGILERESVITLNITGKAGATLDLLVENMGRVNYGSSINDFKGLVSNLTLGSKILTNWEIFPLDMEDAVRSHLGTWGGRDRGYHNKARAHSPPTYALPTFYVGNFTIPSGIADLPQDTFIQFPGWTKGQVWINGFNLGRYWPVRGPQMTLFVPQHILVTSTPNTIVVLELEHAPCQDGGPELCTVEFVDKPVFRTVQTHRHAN

[7] = target: T4, Beta-galactosidase (Aspergillus niger) (UniProt P29853); assay: Percentage inhibition of Beta-galactosidase from Aspergillus niger at 1 mM concentration; […]
T4 sequence (whole entry): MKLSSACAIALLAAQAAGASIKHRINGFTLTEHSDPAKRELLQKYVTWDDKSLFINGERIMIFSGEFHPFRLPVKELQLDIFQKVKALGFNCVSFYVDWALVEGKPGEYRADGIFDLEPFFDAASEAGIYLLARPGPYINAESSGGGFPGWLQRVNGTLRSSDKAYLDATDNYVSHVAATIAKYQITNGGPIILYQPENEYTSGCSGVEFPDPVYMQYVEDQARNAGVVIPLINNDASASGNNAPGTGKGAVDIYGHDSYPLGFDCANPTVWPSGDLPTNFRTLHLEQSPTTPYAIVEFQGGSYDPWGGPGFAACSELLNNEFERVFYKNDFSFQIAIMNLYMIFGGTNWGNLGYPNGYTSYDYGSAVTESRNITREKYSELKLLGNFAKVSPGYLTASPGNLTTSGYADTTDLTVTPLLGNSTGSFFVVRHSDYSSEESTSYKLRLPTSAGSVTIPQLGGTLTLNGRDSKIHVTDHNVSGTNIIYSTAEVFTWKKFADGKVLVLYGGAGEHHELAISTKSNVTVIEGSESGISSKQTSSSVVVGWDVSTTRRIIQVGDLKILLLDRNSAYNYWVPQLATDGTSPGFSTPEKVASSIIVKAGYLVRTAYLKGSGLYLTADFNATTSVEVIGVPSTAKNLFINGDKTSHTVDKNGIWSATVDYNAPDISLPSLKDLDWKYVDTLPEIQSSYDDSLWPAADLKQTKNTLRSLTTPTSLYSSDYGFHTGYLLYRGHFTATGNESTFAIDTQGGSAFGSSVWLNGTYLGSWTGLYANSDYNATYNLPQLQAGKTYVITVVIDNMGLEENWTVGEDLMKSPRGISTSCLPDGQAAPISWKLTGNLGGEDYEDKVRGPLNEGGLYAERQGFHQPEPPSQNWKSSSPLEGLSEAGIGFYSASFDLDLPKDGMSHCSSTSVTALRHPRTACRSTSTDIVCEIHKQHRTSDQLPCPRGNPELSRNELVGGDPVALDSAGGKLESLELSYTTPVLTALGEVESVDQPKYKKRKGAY

[8] = target: T5, Beta-galactosidase (Bos taurus) (UniProt Q58D55); assay: Percentage inhibition of Beta-galactosidase from Bovine liver at 1 mM concentration
T5 sequence (whole entry): T3 sequence (Q58D55 whole entry)

[9] = Percentage inhibition of Beta-galactosidase from Aspergillus oryzae at 1 mM; No inhibition
[10] = target: Glucoamylase (Aspergillus niger) (UniProt P69328); assay: Percentage inhibition of Alpha-glucosidase from Aspergillus niger (amyloglucosidase) at 1 mM; No inhibition
[11] = Inhibitory activity towards Alpha-glucosidase from Yeast (maltase); design: species or system Saccharomyces cerevisiae

T1 sequence (P10482 whole entry): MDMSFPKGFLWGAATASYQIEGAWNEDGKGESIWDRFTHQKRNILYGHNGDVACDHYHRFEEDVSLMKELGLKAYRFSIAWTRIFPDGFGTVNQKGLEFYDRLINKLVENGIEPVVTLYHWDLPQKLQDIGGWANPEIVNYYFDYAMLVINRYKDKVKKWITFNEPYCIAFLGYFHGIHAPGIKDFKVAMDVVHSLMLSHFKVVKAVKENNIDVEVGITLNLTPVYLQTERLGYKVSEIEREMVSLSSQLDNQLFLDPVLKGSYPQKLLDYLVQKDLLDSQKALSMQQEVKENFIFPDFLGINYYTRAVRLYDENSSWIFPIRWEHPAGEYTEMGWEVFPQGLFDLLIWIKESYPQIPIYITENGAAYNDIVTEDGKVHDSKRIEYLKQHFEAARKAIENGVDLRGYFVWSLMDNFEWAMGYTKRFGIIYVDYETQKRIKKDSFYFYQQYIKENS
Glucoamylase (Aspergillus niger), sequence (P69328 whole entry): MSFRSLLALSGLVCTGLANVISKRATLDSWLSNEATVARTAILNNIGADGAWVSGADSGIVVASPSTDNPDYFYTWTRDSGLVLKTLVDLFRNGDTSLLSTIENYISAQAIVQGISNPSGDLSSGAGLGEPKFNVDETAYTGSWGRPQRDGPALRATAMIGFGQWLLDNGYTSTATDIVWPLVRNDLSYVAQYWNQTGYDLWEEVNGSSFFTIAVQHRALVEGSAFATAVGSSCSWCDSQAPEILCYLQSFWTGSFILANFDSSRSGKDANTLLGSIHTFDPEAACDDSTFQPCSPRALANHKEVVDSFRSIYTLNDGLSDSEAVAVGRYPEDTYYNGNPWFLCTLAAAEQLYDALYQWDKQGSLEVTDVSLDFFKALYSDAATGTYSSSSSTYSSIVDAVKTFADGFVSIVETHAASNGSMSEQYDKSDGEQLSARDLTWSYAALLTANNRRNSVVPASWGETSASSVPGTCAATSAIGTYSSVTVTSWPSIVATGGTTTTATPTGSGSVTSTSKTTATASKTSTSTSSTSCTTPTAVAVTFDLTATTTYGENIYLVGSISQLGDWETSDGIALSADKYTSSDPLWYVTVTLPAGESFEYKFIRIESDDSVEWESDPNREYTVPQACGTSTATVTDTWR
Beta-galactosidase (Escherichia coli K-12), sequence (P00722 whole entry): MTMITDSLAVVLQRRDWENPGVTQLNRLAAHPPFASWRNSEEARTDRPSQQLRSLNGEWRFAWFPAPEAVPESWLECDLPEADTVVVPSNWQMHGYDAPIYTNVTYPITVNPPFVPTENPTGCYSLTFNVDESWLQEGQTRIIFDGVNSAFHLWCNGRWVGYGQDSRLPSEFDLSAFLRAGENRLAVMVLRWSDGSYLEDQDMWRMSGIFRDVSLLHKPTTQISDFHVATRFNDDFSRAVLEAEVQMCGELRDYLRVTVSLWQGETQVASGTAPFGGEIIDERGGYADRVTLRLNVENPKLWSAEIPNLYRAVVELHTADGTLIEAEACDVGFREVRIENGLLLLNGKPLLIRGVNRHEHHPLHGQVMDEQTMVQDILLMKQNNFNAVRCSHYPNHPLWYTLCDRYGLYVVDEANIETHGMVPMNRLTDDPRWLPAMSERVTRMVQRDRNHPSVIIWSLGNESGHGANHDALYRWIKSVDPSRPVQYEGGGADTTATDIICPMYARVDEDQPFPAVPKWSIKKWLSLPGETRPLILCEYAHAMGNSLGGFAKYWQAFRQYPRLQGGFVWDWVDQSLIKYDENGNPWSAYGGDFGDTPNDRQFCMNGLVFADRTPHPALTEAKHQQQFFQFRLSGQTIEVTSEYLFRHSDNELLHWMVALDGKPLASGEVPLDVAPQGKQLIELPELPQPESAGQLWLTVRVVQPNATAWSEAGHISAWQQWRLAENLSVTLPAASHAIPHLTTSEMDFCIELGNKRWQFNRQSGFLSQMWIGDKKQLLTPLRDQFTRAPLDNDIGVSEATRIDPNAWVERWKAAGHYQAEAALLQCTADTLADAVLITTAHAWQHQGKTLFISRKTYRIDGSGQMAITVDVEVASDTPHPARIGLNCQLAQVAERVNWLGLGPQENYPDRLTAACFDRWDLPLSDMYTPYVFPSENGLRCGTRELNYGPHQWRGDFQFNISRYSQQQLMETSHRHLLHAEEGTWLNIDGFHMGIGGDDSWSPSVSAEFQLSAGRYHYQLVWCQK

inhibition [1]: 39% | inhibition [2]: 26% | IC50 (Beta-glucosidase A [3]): 290 µM | inhibition [4]: inactive | Ki (Beta-glucosidase A [5]): 120 µM | inhibition (Saccharomyces cerevisiae): 90% | IC50 [6]: 120 µM | Ki [6]: 40 µM | IC50 (Beta-galactosidase): 770 µM | inhibition [7]: inactive | inhibition [8]: 53% | inhibition [9]: inactive | inhibition [10]: inactive | IC50 [11]: 610 µM
SMILES: OC1CNC(CNCC2CCN(Cc3ccccc3)CC2)C1O (centres undefined)
